According to patent US12274709B2, “Dual-drug co-delivery system, preparation method therefor and use thereof” (Institute of Basic Medical Sciences Chinese Academy of …, priority 2019, dated 2025):
Structures can show the parent of a compound that is named as a salt.

Assays:
Format in all cases: cell-based
[1] = tested on: HL60/A cells (HL60 cells resistant to Doxorubicin); test: CCK8 cell viability, HL60/A cells; details: 24 h
Experimental: Taking HL60/A cells (HL60 cells resistant to Doxorubicin) as an example, the specific method was as follows:
(§1) Cells in the Corning 96-well U plates were incubated for 24 h and then washed with PBS, 110 μL CCK8 dilution was added to each well and incubated for 2 h, and the absorbance values (OD) at wavelengths of 450 and 630 nm were measured using the microplate reader. The cell viability was calculated according to Formula 1.

[2] = tested on: U937R (cytarabine-resistant strain, acute myeloid leukemia); test: CCK8 cell viability, U937R cells; details: HHT 15 ng/mL, DOX 120 ng/mL (8:1)
Experimental: as §1

K562 cells = test: CCK8 cell viability, K562 cells; details: Homo sapiens, HHT 25 ng/mL, DOX 375 ng/mL (15:1)
Experimental: as §1

HeLa cells = test: CCK8 cell viability, HeLa cells; details: Homo sapiens, HHT 20 ng/mL, DOX 120 ng/mL (6:1)
Experimental: as §1

MCF7 cells = test: CCK8 cell viability, MCF7 cells; details: Homo sapiens, HHT 25 ng/mL, DOX 100 ng/mL (4:1)
Experimental: as §1

Compound | cytotoxicity against Doxorubicin-resistant strain HL60/A ([1]; DOX 200 ng/mL, FIG. 3) | viability at 0.12 µg/mL [2] | viability at 0.375 µg/mL (K562 cells) | viability at 0.12 µg/mL (HeLa cells) | viability at 0.1 µg/mL (MCF7 cells) | viability at 0.025 µg/mL ([1]; Homo sapiens, HL60/A cells, HHT 25 ng/mL, DOX 200 ng/mL (DOX:HHT 8:1), FIG. 3, system of Example 1) | viability at 0.015 µg/mL [2] | viability at 0.025 µg/mL (K562 cells) | viability at 0.02 µg/mL (HeLa cells) | viability at 0.025 µg/mL (MCF7 cells)
COc1cccc2c1C(=O)c1c(O)c3c(c(O)c1C2=O)C[C@@](O)(C(=O)CO)C[C@@H]3O[C@H]1C[C@H](N)[C@H](O)[C@H](C)O1 [DOX, Doxorubicin hydrochloride] | no cytotoxicity | 55% | 80% | 90% | 92% | – | – | – | – | –
COC(=O)C[C@](O)(CCCC(C)(C)O)C(=O)O[C@@H]1C(OC)=C[C@]23CCCN2CCc2cc4c(cc2[C@H]13)OCO4 [HHT, Homoharringtonine] | – | – | – | – | – | 56% | 59% | 59% | 41% | 50%
